Experimental data taken from ChEMBL document CHEMBL1201862, “PubChem BioAssay data set” (2004).
One block for each compound: values may come before it. Calls of active or inactive are those of the source.

Tests used:
[1] = target: T1, Rac GTPase-activating protein 1 (Homo sapiens, UniProt Q9H0H5); assay: MgcRacGAP GTPase-activating activity inhibitors, confirmation, biochemical, ADP Hunter fluorescence, primary and confirmatory (AID 624330); format: functional
T1 sequence (Q9H0H5 whole entry): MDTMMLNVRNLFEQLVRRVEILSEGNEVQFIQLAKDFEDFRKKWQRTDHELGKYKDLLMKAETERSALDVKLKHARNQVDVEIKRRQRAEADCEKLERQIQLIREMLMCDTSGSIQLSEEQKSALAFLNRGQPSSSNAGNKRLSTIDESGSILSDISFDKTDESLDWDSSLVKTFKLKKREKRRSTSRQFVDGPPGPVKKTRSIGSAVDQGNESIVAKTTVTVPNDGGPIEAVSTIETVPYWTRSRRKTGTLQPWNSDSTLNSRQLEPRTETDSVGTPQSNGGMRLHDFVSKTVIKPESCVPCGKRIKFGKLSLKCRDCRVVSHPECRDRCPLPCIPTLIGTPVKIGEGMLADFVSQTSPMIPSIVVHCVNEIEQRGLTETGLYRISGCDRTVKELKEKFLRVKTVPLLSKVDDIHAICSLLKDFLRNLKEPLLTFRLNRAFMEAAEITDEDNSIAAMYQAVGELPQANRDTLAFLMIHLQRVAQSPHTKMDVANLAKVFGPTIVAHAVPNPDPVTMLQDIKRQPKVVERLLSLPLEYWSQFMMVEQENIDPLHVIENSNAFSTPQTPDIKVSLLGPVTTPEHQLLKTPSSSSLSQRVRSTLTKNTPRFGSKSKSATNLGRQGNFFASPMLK

[2] = HeLa cell cytotoxicity, dose response, cytotoxicity control for MgcRacGAP inhibitor project (AID 624300); format: functional
[3] = system: Vero; assay: West Nile virus antiviral activity, cell-based, CPE readout (AID 1621); format: functional; conditions: Chlorocebus sabaeus
[4] = target: T2, Sphingosine 1-phosphate receptor 2 (Homo sapiens, UniProt O95136); assay: Dose Response Cell Based Assay for Agonists of the S1P2 Receptor of Purchased Analogues. [Related pubchem assays: 729, 843, 854, 736 ]; format: functional
T2 sequence (O95136 whole entry): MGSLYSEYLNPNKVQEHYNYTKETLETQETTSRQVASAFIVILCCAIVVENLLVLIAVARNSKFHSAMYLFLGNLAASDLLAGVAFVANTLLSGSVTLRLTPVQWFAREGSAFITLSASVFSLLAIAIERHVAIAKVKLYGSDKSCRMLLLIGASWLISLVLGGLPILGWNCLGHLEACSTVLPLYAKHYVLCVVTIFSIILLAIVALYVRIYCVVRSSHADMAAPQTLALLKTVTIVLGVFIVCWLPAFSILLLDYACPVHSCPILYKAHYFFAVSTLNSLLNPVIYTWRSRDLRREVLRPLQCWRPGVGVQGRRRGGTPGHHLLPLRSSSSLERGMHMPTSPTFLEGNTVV

[5] = target: T2, Sphingosine 1-phosphate receptor 2; assay: Dose Response Cell Based Assay for Agonists of the S1P2 Receptor. [Related pubchem assays: 729, 736, 843 ]; format: functional
[6] = target: Diphosphomevalonate decarboxylase (Streptococcus pneumoniae serotype 2 (strain D39 / NCTC 7466), UniProt Q9FD53); assay: S. pneumoniae DPM-DC inhibition retest, confirmation, biochemical, cuvette format, coupled NADH fluorescence (AID 1028); format: functional
Sequence of Diphosphomevalonate decarboxylase (Q9FD53 whole entry): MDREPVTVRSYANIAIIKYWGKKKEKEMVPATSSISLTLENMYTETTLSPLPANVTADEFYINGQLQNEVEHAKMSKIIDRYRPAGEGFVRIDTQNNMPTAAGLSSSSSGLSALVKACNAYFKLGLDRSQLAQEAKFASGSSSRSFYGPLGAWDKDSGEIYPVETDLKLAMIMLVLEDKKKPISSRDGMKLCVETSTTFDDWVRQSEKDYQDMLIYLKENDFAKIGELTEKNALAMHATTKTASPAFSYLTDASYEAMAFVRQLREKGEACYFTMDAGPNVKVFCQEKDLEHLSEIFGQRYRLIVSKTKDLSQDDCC

[7] = target: Cytochrome P450 2C19 (Homo sapiens, UniProt P33261); assay: qHTS Assay for Inhibitors and Substrates of Cytochrome P450 2C19. [Related pubchem assays: 410 ]; format: ADME; conditions: read-out: Potency
Sequence of Cytochrome P450 2C19 (P33261 whole entry): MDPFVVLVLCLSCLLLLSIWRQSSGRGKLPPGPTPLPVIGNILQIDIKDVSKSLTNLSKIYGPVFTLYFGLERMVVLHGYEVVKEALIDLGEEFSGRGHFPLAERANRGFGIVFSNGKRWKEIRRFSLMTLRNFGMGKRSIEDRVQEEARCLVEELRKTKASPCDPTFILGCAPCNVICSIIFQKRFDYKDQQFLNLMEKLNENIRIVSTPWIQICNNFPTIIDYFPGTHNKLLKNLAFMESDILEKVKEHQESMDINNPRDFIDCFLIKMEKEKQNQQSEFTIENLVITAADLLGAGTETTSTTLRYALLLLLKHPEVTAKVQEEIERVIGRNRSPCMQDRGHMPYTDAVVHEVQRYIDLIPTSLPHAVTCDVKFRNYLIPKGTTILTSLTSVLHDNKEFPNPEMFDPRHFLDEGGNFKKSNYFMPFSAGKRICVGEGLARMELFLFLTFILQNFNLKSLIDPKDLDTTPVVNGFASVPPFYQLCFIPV

[8] = HepG2 cell cytotoxicity, dose response, cytotoxicity control for Shn3 inhibitor project, CellTiter-Glo, cherry-picked (AID 624134); format: functional, cell-based
[9] = target: T2, Sphingosine 1-phosphate receptor 2; assay: Dose Response Cell Based Assay for Antagonists of the S1P2 Receptor. [Related pubchem assays: 856, 736 ]; format: functional
[10] = control 3'UTR Renilla luciferase suppression, dose response, counter-screen for Shn3 inhibitor project, cell-based, Clone20-Shn3RL, cherry-picked (AID 624133); format: functional
[11] = target: T3, Neuropeptide Y receptor type 1 (Homo sapiens, UniProt P25929); assay: NPY-Y1 receptor antagonist potency, dose response, cell-based (AID 1277); format: functional
T3 sequence (P25929 whole entry): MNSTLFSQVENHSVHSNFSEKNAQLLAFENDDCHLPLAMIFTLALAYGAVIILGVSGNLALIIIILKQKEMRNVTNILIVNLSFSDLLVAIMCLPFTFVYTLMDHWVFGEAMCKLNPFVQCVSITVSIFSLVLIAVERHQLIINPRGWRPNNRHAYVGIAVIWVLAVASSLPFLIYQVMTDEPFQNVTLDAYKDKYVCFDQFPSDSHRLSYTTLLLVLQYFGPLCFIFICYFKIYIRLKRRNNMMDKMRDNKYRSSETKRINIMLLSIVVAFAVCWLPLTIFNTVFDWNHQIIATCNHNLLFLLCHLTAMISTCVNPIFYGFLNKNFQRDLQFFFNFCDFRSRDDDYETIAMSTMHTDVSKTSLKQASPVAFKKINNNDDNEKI

[12] = Shn3 3'UTR reporter inhibitors, dose response, cell-based, Clone20 osteoblasts, firefly luciferase, cherry-picked (AID 624132); format: functional;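 further: firefly luciferase luminescence from reporter carrying the Shn3 3'UTR in osteoblasts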
[13] = target: T4, Neuropeptide Y receptor type 2 (Homo sapiens, UniProt P49146); assay: NPY-Y2 antagonist potency, selectivity check, dose response, counter-screen for NPY-Y1 antagonist project, cell-based (AID 1278); format: functional
T4 sequence (P49146 whole entry): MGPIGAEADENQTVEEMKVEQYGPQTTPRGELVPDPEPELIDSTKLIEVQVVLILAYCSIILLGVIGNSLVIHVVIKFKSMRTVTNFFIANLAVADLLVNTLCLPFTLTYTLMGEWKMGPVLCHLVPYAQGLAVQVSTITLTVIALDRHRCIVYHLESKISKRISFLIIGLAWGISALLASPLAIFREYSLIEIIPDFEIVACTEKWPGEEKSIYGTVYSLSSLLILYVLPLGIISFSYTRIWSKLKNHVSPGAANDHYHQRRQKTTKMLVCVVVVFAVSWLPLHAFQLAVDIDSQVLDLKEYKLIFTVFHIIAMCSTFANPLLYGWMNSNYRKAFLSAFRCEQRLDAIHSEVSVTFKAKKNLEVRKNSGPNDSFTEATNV

[14] = target: NADPH oxidase 1 (Homo sapiens, UniProt Q9Y5S8); assay: Late-stage luminescence-based cell-based dose response assay to identify inhibitors of NADPH oxidase 1 (NOX1): Synthesized analogs 3.; format: functional
Sequence of NADPH oxidase 1 (Q9Y5S8 whole entry): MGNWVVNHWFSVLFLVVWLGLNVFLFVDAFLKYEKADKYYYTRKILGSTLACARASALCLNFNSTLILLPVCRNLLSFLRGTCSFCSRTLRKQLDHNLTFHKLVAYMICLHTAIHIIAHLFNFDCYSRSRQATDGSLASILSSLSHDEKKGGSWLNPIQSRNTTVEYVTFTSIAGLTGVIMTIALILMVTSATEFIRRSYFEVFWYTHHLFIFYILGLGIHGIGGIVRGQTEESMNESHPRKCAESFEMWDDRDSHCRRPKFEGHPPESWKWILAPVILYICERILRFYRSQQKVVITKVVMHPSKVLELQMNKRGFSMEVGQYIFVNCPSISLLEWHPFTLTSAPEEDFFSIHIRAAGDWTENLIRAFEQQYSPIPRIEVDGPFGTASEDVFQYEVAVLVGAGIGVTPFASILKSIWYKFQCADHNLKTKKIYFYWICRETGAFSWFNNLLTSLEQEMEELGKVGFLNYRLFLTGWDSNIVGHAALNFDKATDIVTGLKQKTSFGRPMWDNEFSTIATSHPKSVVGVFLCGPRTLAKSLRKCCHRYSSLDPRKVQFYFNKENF

[15] = target: 14-3-3 protein gamma (Homo sapiens, UniProt P61981); assay: modulators of 14-3-3 gamma client binding – dose response (AID 711); format: functional
Sequence of 14-3-3 protein gamma (P61981 whole entry): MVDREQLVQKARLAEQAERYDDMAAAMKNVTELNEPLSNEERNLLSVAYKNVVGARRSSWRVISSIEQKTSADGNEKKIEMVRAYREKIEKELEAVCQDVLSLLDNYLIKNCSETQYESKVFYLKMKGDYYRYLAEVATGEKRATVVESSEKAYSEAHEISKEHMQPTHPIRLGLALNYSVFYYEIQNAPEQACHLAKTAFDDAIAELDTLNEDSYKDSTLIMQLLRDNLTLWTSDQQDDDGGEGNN

[16] = target: Epstein-Barr nuclear antigen 1 (Epstein-Barr virus (strain B95-8) (HHV-4) (Human herpesvirus 4), UniProt P03211); assay: EBNA-1 inhibitors, dose response, biochemical, fluorescence polarization, 1536-well (AID 2381); design: species or system human gammaherpesvirus 4;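 further: fluorescence polarization of a Cy5 DNA probe bound by EBNA-1 protein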
Sequence of Epstein-Barr nuclear antigen 1 (P03211 whole entry): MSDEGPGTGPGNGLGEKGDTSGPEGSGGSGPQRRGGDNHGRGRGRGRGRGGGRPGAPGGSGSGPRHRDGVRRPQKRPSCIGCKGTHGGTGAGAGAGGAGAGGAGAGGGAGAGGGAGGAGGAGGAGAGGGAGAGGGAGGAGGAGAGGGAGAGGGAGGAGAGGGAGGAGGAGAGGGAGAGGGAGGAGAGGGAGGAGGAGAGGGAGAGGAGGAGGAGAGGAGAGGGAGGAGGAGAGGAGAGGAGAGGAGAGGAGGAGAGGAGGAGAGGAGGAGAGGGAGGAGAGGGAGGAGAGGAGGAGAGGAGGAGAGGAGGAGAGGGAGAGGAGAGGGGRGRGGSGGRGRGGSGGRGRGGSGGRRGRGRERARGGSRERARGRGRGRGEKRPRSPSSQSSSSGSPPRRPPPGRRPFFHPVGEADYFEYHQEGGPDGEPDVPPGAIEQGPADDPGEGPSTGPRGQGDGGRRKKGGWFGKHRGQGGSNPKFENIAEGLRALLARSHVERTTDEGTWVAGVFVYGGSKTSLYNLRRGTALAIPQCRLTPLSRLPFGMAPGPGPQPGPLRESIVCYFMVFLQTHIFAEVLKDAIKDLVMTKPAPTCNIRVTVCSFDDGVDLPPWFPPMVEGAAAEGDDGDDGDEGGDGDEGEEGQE

[17] = target: Lytic switch protein BZLF1 (Epstein-Barr virus (strain B95-8) (HHV-4) (Human herpesvirus 4), UniProt P03206); assay: EBV ZTA inhibitors, dose response, counter-screen for EBNA-1 inhibitor project, biochemical, fluorescence polarization, Epstein-Barr virus, 1536-well (AID 2377); design: species or system human gammaherpesvirus 4;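 further: fluorescence polarization of Cy5-labelled ZRE DNA probe bound by purified Zta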
Sequence of Lytic switch protein BZLF1 (P03206 whole entry): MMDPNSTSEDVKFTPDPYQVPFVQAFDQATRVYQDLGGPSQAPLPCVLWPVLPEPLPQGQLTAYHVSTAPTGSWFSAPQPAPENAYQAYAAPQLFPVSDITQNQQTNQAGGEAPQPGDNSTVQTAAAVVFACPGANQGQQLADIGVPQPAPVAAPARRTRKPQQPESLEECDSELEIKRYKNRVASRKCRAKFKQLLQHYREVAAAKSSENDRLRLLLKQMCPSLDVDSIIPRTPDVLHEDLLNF

[18] = target: Mitogen-activated protein kinase 10 (Homo sapiens, UniProt P53779); assay: Dose response biochemical screening assay for inhibitors of c-Jun N-Terminal Kinase 3 (JNK3). [Related pubchem assays: 746 ]
Sequence of Mitogen-activated protein kinase 10 (P53779 whole entry): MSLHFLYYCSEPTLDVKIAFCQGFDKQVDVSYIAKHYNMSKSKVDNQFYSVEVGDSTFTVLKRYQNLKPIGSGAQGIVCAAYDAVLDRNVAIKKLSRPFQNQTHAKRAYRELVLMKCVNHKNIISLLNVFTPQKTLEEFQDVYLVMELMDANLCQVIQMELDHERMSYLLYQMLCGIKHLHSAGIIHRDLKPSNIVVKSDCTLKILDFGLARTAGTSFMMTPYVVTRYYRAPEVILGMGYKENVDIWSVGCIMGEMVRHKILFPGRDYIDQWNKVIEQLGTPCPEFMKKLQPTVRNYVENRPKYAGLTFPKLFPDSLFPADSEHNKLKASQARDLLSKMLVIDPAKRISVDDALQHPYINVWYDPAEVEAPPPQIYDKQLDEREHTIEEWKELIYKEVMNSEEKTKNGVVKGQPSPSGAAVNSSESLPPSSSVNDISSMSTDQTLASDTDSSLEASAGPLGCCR

[19] = target: Prothrombin (Homo sapiens, UniProt P00734); assay: Thrombin 1536 HTS Dose Response Confirmation. [Related pubchem assays: 1046 (Thrombin 1536 HTS; hits were confirmed in this assay)]; format: functional
[20] = target: T5, Coagulation factor XII (Homo sapiens, UniProt P00748); format: functional;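 further: activated factor XIIa alpha cleaving a fluorogenic AMC peptide substrate; inhibitor potency from loss of enzyme activity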
T5 sequence (P00748 whole entry): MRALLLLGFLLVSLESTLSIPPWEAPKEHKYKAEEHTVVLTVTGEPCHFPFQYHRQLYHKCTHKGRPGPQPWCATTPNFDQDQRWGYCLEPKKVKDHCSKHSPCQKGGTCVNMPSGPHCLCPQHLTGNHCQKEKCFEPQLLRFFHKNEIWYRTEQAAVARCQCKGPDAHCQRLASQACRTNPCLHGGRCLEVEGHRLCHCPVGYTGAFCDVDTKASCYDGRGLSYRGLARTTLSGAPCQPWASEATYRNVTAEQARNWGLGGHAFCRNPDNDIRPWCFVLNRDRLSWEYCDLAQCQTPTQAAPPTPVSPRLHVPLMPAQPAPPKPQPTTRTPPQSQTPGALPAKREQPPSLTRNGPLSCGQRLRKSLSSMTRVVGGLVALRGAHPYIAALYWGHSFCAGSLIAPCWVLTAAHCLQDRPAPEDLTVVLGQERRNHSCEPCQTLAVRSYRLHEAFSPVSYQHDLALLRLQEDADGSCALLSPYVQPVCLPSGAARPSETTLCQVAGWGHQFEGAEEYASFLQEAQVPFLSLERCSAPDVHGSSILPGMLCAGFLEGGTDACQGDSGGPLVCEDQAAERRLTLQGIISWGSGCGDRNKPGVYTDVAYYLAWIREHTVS

SMILES: CCOC(=O)c1c(NC(=O)CN(C)C2CCN(C)CC2)sc(C(=O)Nc2ccccc2)c1C
- IC50 [1]: 76.9 µM (active)
- CC50 [2]: 100 µM (active)
- IC50 [3]: 24.3 µM (active)

SMILES: O=C(NCc1ccccc1)c1ccccc1-n1sc2ccccc2c1=O
- IC50 [6]: 12.4 µM (active)

SMILES: CCN(C(=O)c1ccc(C(C)(C)C)cc1)c1nnc(Cn2nnc3ccccc32)s1
- AC50 [8]: 1.55 µM (active)
- IC50 [9]: 83.8 µM (not active)
- AC50 [10]: 2 µM (active)
- IC50 [11]: 3.21 µM (active)
- AC50 [12]: 1.35 µM (active)
- IC50 [13]: 7.74 µM (active)

SMILES: CN1c2ccc(Br)cc2Sc2cc(C(=O)c3ccc(N=[N+]=[N-])cc3)ccc21
- IC50 [14]: 13.7 µM (active)

SMILES: COc1ccc(OC)c(NC(=O)CCN2CCCC(C)C2)c1 (stereo not given)
- IC50 [15]: > 50 µM (not active)

Other lines, results leading:

- EC50 [4]: > 30 µM (not active)
SMILES: Cc1cc(C(=O)CN(C)Cc2ccco2)c(C)n1Cc1ccccc1

- EC50 [5]: > 50 µM (not active)
SMILES: c1ccc(OCCSc2nnnn2-c2ccccc2)cc1

- AC50 [7]: 2 µM (inconclusive)
SMILES: CNc1ccccc1C(=O)OCC(=O)c1ccccc1

- IC50 [16]: > 5.47 µM (active)
- IC50 [17]: > 111 µM (not active)
SMILES: COCCCNC(=O)c1c(N)n(-c2ccc(S(N)(=O)=O)cc2)c2nc3ccccc3nc12

- IC50 [18]: 68.8 µM (not active)
SMILES: CS(=O)(=O)N1CCN(c2ccccc2NC(=O)Cc2ccccc2)CC1

- IC50 [19]: > 50 µM (not active)
- IC50 [20]: > 50 µM (inactive)
SMILES: COc1ccc(/C=N/NC(=O)c2sc3nc(C)cc(C)c3c2N)cc1
